Data: patent US20100190968A1, “OLEANANE TRITERPENE SAPONIN COMPOUNDS WHICH ARE EFFECTIVE ON TREATMENT OF DEMENTIA AND MILD COGNITIVE IMPAIRMENT (MCI) AND IMPROVEMENT OF COGNITIVE FUNCTION” (priority 2006, published 2010)

Test system: mice
Test: Passive avoidance test (scopolamine-induced memory decline)
Assay type: in vivo, mouse
Settings: scopolamine 1 mg/kg; for Retention time: measured up to 300 seconds
Method: Passive avoidance test was performed to identify the memory improvement effect of the above 8 oleanolic acid saponin or hederagenin saponin substances in the body. Also, oleanolic acid and hederagenin, aglycons of the saponin compounds, were included in the test. A shuttle box measuring 50 cm×15 cm×40 cm was used. The box was divided into two compartments by a guillotine door. One compartment was brightly illuminated and the other was covered by black cloth. A mouse was placed in the illuminated compartment. Then, when the guillotine door was open, the mouse moved into the dark compartment within 20 seconds because it prefers darkness. The guillotine door was closed automatically as soon as the mouse entered the dark compartment. In this way, the latency time, or the time that elapsed until a mouse left the illuminated compartment and entered the dark compartment, was determined. On the first day, this training trial was performed until all the mice entered the dark compartment within 20 seconds. On the following day, the trained mice were placed in the illuminated compartment, one at a time, and were allowed to move into the dark compartment. When the mice entered the dark compartment, a foot-shock (0.8 mA, 3 seconds) was delivered through the electronic grid equipped on the floor of the dark compartment. 24 hours after this acquisition trial, the mice were placed in the illuminated compartment and were allowed to move into the dark compartment. Then, normal mice hesitated to move into the dark compartment remembering the shock of the day before. The time elapsed until the mice entered the dark compartment was measured up to 300 seconds. Retention time was measured to evaluate the memory improvement effect. Neither scopolamine nor the drug was administered to the control group. Scopolamine (1 mg/kg), which is known to decline memory function by inhibiting the transfer of neurotransmitters, was administered. An hour later, saponin (30 mg/kg) and aglycon (30 mg/kg), […] (donepezil, 1 mg/kg, positive control) and water (negative control) were administered.

[1] = saponin or aglycon 30 mg/kg administered once orally 1 hour later, 24 hours after acquisition trial
[2] = saponin or aglycon 30 mg/kg 1 hour later

Molecule	Retention time [1]	also measured
CC1OC(OC2C(CO)OC(OCC3OC(OC(=O)C45CCC(C)(C)CC4C4=CCC6C7(C)CCC(OC8OCC(OC9OC(CO)C(O)C(O)C9OC9OC(C)C(O)C(O)C9O)C(O)C8O)C(C)(C)C7CCC6(C)C4(C)CC5)C(O)C(O)C3O)C(O)C2O)C(O)C(O)C1O [Hederacolchiside E, 3-O-α-L-Rhamnopyranosyl(1→2)-β-D-glucopyranosyl(1→4)-α-L-arabinopyranosyloleanolic acid-28-O-α-L-rhamnopyranosyl(1→4)-β-D-glucopyranosyl(1→6)-β-D-glucopyranosyl ester]	155.7 ± 31.2 s	
3-O-β-D-Xylopyranosyl(1→2)-β-D-galactopyranosyl(1→3)-β-D-glucolopyranosyloleanolic acid [Elatoside A]	166.0 ± 24.8 s	
CC1OC(OC2C(OCC3OC(OC(=O)C45CCC(C)(C)CC4C4=CCC6C7(C)CCC(OC8OCC(O)C(O)C8OC8OC(C)C(O)C(O)C8O)C(C)(CO)C7CCC6(C)C4(C)CC5)C(O)C(O)C3O)OCC(O)C2O)C(O)C(O)C1O [Loniceroside B, 3-O-α-L-Rhamnopyranosyl(1→2)-α-L-arabinopyranosylhederagenin-28-O-α-L-rhamnopyranosyl(1→2)-β-D-xylopyranosyl(1→6)-β-D-glucopyranosyl ester]	169.7 ± 25.4 s	
COc1cc2c(cc1OC)C(=O)C(CC1CCN(Cc3ccccc3)CC1)C2 (centres unmarked) [Aricept, donepezil, reference compound]		times longer retention time than the negative control group (water) (Aricept 1 mg/kg orally 1 hour later): 1.6 times; Retention time (Aricept (donepezil) 1 mg/kg orally 1 hour later, positive control): 98.5 ± 10.6 s
C[C@@H]1O[C@@H](O[C@H]2[C@H](O[C@H]3CC[C@]4(C)[C@H]5CC=C6[C@@H]7CC(C)(C)CC[C@]7(C(=O)O)CC[C@@]6(C)[C@]5(C)CC[C@H]4C3(C)C)OC[C@H](O)[C@@H]2O)[C@H](O)[C@H](O)[C@H]1O [Eleutheroside K, 3-O-α-L-Rhamnopyranosyl(1→2)-α-L-arabinopyranosyloleanolic acid]	182.6 ± 15.9 s	
CC1(C)CC[C@]2(C(=O)O)CC[C@]3(C)C(=CC[C@@H]4[C@@]5(C)CC[C@H](O)C(C)(C)[C@@H]5CC[C@]43C)[C@@H]2C1 [Oleanolic acid, oleanolic acid, reference compound]	149.4 ± 19.7 s	times longer retention time than the negative control group (water) [2]: 2.4 times
C[C@@H]1O[C@@H](O[C@H]2[C@H](O[C@H]3CC[C@@]4(C)[C@@H](CC[C@]5(C)[C@@H]4CC=C4[C@@H]6CC(C)(C)CC[C@]6(C(=O)O[C@@H]6O[C@H](CO[C@@H]7O[C@H](CO)[C@@H](O[C@@H]8O[C@@H](C)[C@H](O)[C@@H](O)[C@H]8O)[C@H](O)[C@H]7O)[C@@H](O)[C@H](O)[C@H]6O)CC[C@]45C)[C@]3(C)CO)OC[C@H](O)[C@@H]2O)[C@H](O)[C@H](O)[C@H]1O [Kalopanaxsaponin B, 3-O-α-L-Rhamnopyranosyl(1→2)-α-L-arabinopyranosylhederagenin-28-O-α-L-rhamnopyranosyl(1→4)-β-D-glucopyranosyl(1→6)-β-D-glucopyranosyl ester]	170.5 ± 24.6 s	
3-O-β-D-Xylopyranosyl(1→2)-β-D-galactopyranosyl(1→3)-β-D-glucolopyranosyloleanolic acid-28-O-β-D-glucopyranosyl ester [Elatoside C]	160.1 ± 15.6 s	
C[C@@H]1O[C@@H](O[C@H]2[C@H](OC[C@H]3O[C@@H](OC(=O)[C@]45CCC(C)(C)C[C@H]4C4=CC[C@@H]6[C@@]7(C)CC[C@H](O[C@@H]8OC[C@H](O)[C@H](O)[C@H]8O)[C@@](C)(CO)[C@@H]7CC[C@@]6(C)[C@]4(C)CC5)[C@H](O)[C@@H](O)[C@@H]3O)OC[C@@H](O)[C@@H]2O)[C@H](O)[C@H](O)[C@H]1O [Loniceroside A, 3-O-α-L-Arabinopyranosylhederagenin-28-O-α-L-rhamnopyranosyl(1→2)-β-D-xylopyranosyl(1→6)-β-D-glucopyranosyl ester]	175.3 ± 21.1 s	
C[C@@H]1O[C@@H](O[C@H]2[C@H](O[C@H]3CC[C@]4(C)[C@H]5CC=C6[C@@H]7CC(C)(C)CC[C@]7(C(=O)O[C@@H]7O[C@H](CO[C@@H]8O[C@H](CO)[C@@H](O[C@@H]9O[C@@H](C)[C@H](O)[C@@H](O)[C@H]9O)[C@H](O)[C@H]8O)[C@@H](O)[C@H](O)[C@H]7O)CC[C@@]6(C)[C@]5(C)CC[C@H]4C3(C)C)OC[C@H](O)[C@@H]2O)[C@H](O)[C@H](O)[C@H]1O [Hederasaponin B, 3-O-α-L-Rhamnopyranosyl(1→2)-α-L-arabinopyranosyloleanolic acid-28-O-α-L-rhamnopyranosyl(1→4)-β-D-glucopyranosyl(1→6)-β-D-glucopyranosyl ester]	172.3 ± 29.1 s	
CC1(C)CC[C@]2(C(=O)O)CC[C@]3(C)C(=CC[C@@H]4[C@@]5(C)CC[C@H](O)[C@@](C)(CO)[C@@H]5CC[C@]43C)[C@@H]2C1 [Hederagenin, hederagenin, reference compound]	142.8 ± 32.6 s	times longer retention time than the negative control group (water) [2]: 2.3 times
